Non-standard residues stand in square brackets, D forms with d. No end group written: not given here. Ahx = NCCCCCC(=O)O; βAla = NCCC(=O)O
Experiments:
[1] = target: T1, intracellular region of the Fas receptor (Homo sapiens, UniProt P25445); assay: Binding affinities (Kd) by surface plasmon resonance (Biacore); conditions: mean of three independent experiments, read-out: Kd ± SD
T1 sequence (P25445 191-335 limits assumed): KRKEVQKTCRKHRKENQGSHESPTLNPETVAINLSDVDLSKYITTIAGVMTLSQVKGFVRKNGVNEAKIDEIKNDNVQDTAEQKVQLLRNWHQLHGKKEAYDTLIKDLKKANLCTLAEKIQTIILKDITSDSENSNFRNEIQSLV
Source text: Additionally, the potential interaction of the fragments with the intracellular region of the Fas receptor was cross-validated by measuring the binding affinities (Kd) using the surface plasmon resonance (SPR) technique (Biacore Life Science, Sweden).

primary cardiomyocytes = assay: STS-induced DNA fragmentation (Cell Death detection ELISA PLUS) in primary cardiomyocytes; format: cell-based, mouse; conditions: for decrease in apoptosis: cardiomyocytes, STS + 1 μM peptide, FIG. 9; for anti-apoptotic effect compared with Tat-DAXXp: primary cardiomyocytes, against STS
Method: (§1) FIG. 5: In vitro evaluation of the anti-apoptotic activity of CPPs and CPP-conjugates. Workflow and quantitation of DNA fragmentation in (A) C2C12 cells, (B) primary cardiomyocytes, (C) H9c2 cells and (D) NG108-15 cells. Data were normalized to 100% STS. Data shown are the means±SEM, with n≧5. Cells were seeded in 24-well plates and grown overnight. The next day, the cells were incubated with STS alone or with STS+1 μM peptide (in OPTI-MEM) (OPTI-MEM® is a modification of Eagle's Minimum Essential Media, buffered with HEPES and sodium bicarbonate, and supplemented with hypoxanthine, thymidine, sodium pyruvate, L-glutamine, trace elements, and growth factors) (STS concentration and incubation time for each cells are given in the figure). Thereafter, solutions were removed, replaced by complete medium and further incubated for 40 h. Following the regeneration phase, the cells were lyzed and DNA fragmentation was detected according to manufacturer's instructions (Cell Death detection ELISA^PLUS kit—Roche Diagnostics).
FIG. 6: Anti-apoptotic activity of variants of the Tat-DAXXp sequence on primary cardiomyocytes. As described in the caption of FIG. 5, the different analogues of the DAXXp sequence (see Table 2) were assessed for anti-apoptotic properties against STS (Cell Death detection ELISA^PLUS kit—Roche Diagnostics) (A-B). None of the analogues were able to protect the primary cardiomyocytes—a fact which confirms that the 16mer DAXXp has the optimal length and sequence for highest cardioprotective effect.
FIG. 7: Comparison of the murine/rat DAXXp with the human DAXXp sequence in terms of anti-apoptotic activity on C2C12 cells, primary cardiomyocytes, and H9c2. The murine DAXXp sequence conjugated to Tat (Tat-mDAXXp—SEQ ID NO: 61) which is identical to the rat DAXXp sequence (see FIG. 1B), was compared to the human construct (Tat-DAXXp) in terms of anti-apoptotic properties against STS (Cell Death detection ELISA^PLUS kit—Roche Diagnostics). The C2C12 cells and the primary cardiomyocytes used were from mice and the H9c2 cells from rat.
FIG. 9: Comparison of FADDp constructs with Tat-DAXXp in terms of anti-apoptotic activity in primary cardiomyocytes and in H9c2 cells. Quantification of DNA normalized to 100% STS. Data shown are the means±SEM, with n≧5. Cells were seeded in 24-well plates and grown overnight. The next day, the cells were incubated with STS alone or with STS+1 μM peptide (in OPTI-MEM®) (OPTI-MEM® is a modification of Eagle's Minimum Essential Media, buffered with HEPES and sodium bicarbonate, and supplemented with hypoxanthine, thymidine, sodium pyruvate, L-glutamine, trace elements, and growth factors) (STS concentration is given in the figure and incubation time is given in FIG. 5). Thereafter, solutions were removed, replaced by complete medium and further incubated for 40 hours. Following the regeneration phase, the cells were lyzed and DNA fragmentation was detected according to manufacturer's instructions (Cell Death detection ELISA^PLUS kit—Roche Diagnostics).
FIG. 10: Comparison of Tat-DAXXp and Tat-FADDp15 alone and in combination in primary cardiomyocytes (A) and in H9c2 cells (B).
(§2) Thereafter, the capacity of these peptides to inhibit apoptosis induced by staurosporine was evaluated. Apoptosis was determined using the Cell Death detection ELISA^PLUS kit (Roche) measuring the DNA fragmentation.
In most publications, anti-apoptotic peptides currently available in the art are administrated 3-4 hours prior to apoptosis induction, which is poorly relevant to a clinical application. For that reason, the protocol used in the present study included administration of the peptides together with the staurosporine. […] This was not observed with CPP alone or with the Tat-scrDAXXp or Tat-ncDAXXp negative controls. […] To better compare the results, the DNA fragmentation (described by the enrichment factor) is related to the staurosporine-treated cells (=100%).

H9c2 cells = assay: STS-induced DNA fragmentation (Cell Death detection ELISA PLUS) in H9c2 cells; format: cell-based, rat; conditions: H9c2; against STS
Method: as §1, with “Diagnostics). […]” for “Diagnostics).”
as §2
The anti-apoptotic effects of the peptides were also analyzed in murine NG118-15 (model for neuronal cells) (FIG. 5D), in murine C2C12 (model for muscle cells) (FIG. 5A) and in rat H9c2 (model for cardiac cells) (FIG. 5C). The highest reduction in DNA fragmentation were observed using Bpep-DAXXp in NG118-15 (66% reduction) using Tat-DAXXp in C2C12 (24% reduction) and Pip2b-DAXXp in H9c2 (31% reduction).

C2C12 cells = assay: STS-induced DNA fragmentation (Cell Death detection ELISA PLUS) in C2C12 cells; format: cell-based, mouse; conditions: C2C12; against STS
Method: as §1, with “Thereafter, solutions were removed, replaced by complete medium and further incubated for 40 h.” left out, “Diagnostics). […]” for “Diagnostics).”
as §2
(§3) The anti-apoptotic effects of the peptides were also analyzed in murine NG118-15 (model for neuronal cells) (FIG. 5D), in murine C2C12 (model for muscle cells) (FIG. 5A) and in rat H9c2 (model for cardiac cells) (FIG. 5C). […]

NG108-15 cells = assay: STS-induced DNA fragmentation (Cell Death detection ELISA PLUS) in NG108-15 cells; format: cell-based; conditions: murine NG118-15 (model for neuronal cells); FIG. 5D
Method: as §1, with “Thereafter, solutions were removed, replaced by complete medium and further incubated for 40 h.” left out
as §2, §3

Q: How did the Kd [1] turn out when “KKGRKQSGESLGTPKK-NH2 [scrDAXXp, KKGRKQSGESLGTPKK -NH2]” was run?
A: Its Kd is at least 6 mM.

Q: Which decrease in apoptosis (primary cardiomyocytes) does the source give for “GRKKRRQRRRPPQ-VGKRKLERVQSGLDL-NH2 (GRKKRRQRRRPPQVGKRKLERVQSGLDL-NH2) [Tat-FADDp15]” here?
A: Its decrease in apoptosis is 57%.

Q: And the “anti-apoptotic effect compared with Tat-DAXXp” value (primary cardiomyocytes)?
A: Its value is “increased anti-apoptotic effect”.

Q: And the “anti-apoptotic effect compared with Tat-DAXXp” value (H9c2 cells)?
A: Its value is “equal”.

Q: Which results are given for “GRKKRRQRRRPPQ-KRKLERVQS-NH2 (GRKKRRQRRRPPQKRKLERVQS-NH2) [Tat-FADDp]”?
A: decrease in apoptosis (primary cardiomyocytes): 35%; anti-apoptotic effect compared with Tat-DAXXp (primary cardiomyocytes): less effective than Tat-DAXXp; anti-apoptotic effect compared with Tat-DAXXp (H9c2 cells): less effective than Tat-DAXXp

Q: With “GRKKRRQRRRPPQ-KRFRKEKKQLGSGLLG-NH2 (GRKKRRQRRRPPQKRFRKEKKQLGSGLLG-NH2) [Tat-mDAXXp]” as the substance, how does the “anti-apoptotic effect compared with Tat-DAXXp” value (C2C12 cells) read?
A: Its value is “increase in anti-apoptotic effect”.

Q: What about the “anti-apoptotic effect compared with Tat-DAXXp” value (primary cardiomyocytes) of the same substance?
A: The value was “increase in anti-apoptotic effect”.

Q: What about the “anti-apoptotic effect compared with Tat-DAXXp” value (H9c2 cells) of the same substance?
A: The value was “increase in anti-apoptotic effect”.

Q: “RXRRBRRXRRBRXB-KKSRKEKKQTGSGPLG-NH2 (R[Ahx]RR[βAla]RR[Ahx]RR[βAla]R[Ahx][βAla]KKSRKEKKQTGSGPLG-NH2; N-terminus assumed; SMILES CC(C)C[C@H](NC(=O)[C@@H]1CCCN1C(=O)CNC(=O)[C@H](CO)NC(=O)CNC(=O)[C@@H](NC(=O)[C@H](CCC(N)=O)NC(=O)[C@H](CCCCN)NC(=O)[C@H](CCCCN)NC(=O)[C@H](CCC(=O)O)NC(=O)[C@H](CCCCN)NC(=O)[C@H](CCCNC(=N)N)NC(=O)[C@H](CO)NC(=O)[C@H](CCCCN)NC(=O)[C@H](CCCCN)NC(=O)CCNC(=O)CCCCCNC(=O)[C@H](CCCNC(=N)N)NC(=O)CCNC(=O)[C@H](CCCNC(=N)N)NC(=O)[C@H](CCCNC(=N)N)NC(=O)CCCCCNC(=O)[C@H](CCCNC(=N)N)NC(=O)[C@H](CCCNC(=N)N)NC(=O)CCNC(=O)[C@H](CCCNC(=N)N)NC(=O)[C@H](CCCNC(=N)N)NC(=O)CCCCCNC(=O)[C@@H](N)CCCNC(=N)N)[C@@H](C)O)C(=O)NCC(N)=O) [Bpep-DAXXp]” was tested. Which “reduction in DNA fragmentation” value (NG108-15 cells) did it give?
A: The value was 66%.

Reference: patent publication US9814758B2, “Inhibitors of apoptosis and uses thereof” (CENTRE NATIONAL DE LA RECHERCHE SCIENTIFIQUE-CNRS, priority 2010, dated 2017)
